Source: ChEMBL document CHEMBL4304740, “Structure-Based Design of Selective β-Site Amyloid Precursor Protein Cleaving Enzyme 1 (BACE1) Inhibitors: Targeting the Flap to Gain Selectivity over BACE2” (J Med Chem, 2019)

What was measured:
in vitro [1] = conditions: human, liver microsomes
physchem = conditions: octanol/phosphate buffered saline, pH 7.4
in vivo = conditions: Crl:CD(ICR), mouse, brain/plasma, po, 30 mg/kg
in vitro [2] = conditions: mouse, liver microsomes

Row | SMILES | remaining at 0.5 h, 0.1 µM (in vitro [1]) | logD (physchem) | Kp (in vivo) | remaining at 0.5 h, 0.1 µM (in vitro [2])
1 | C[C@]1(c2cc(NC(=O)c3cnc(OCF)cn3)ccc2F)N=C(N)SCC12CCC(F)(F)CC2 | 27% | 2.3 | 0.55 | 4.5%
2 | C[C@]1(c2cc(NC(=O)c3cnc(OCF)cn3)ccc2F)N=C(N)SCC12CCOCC2 | 51% | 1.2 |  | 5%
